Laboratory results published in ChEMBL document CHEMBL3885861, “Open TG-GATES”.

Species on record: Rattus norvegicus
Experiment: Open TG-GATES - Regimen: Single
Type: toxicity, organism-based, Sprague-Dawley
Set-up: regimen Single, gender Male, age 6 weeks
Settings: in vivo, po, 0 mg/kg, route gavage, dose level Control; for APTT / Bas / Eos / Fbg / Hb / Ht / Lym / MCH / MCHC / MCV / Mono / Neu / PT / Plat / RBC / Ret / WBC: tissue Blood; for KIDNEY_L / KIDNEY_R / KIDNEY_TOTAL: tissue Kidney; for LIVER: tissue Liver; for A/G / ALP / ALT / AST / BUN / CRE / Ca / Cl / DBIL / GLC / IP / K / LDH / Na / PL / RALB / TBIL / TC / TG / TP / gamma-GTP: tissue Plasma

With `CCOC(=O)C(C)(C)Oc1ccc(Cl)cc1` [CLOFIBRATE] the TERMINAL_BW (3 h) was 228.9 g, the APTT (3 h) was 18.8 s and the Bas (3 h) was 0%. The Eos (3 h) was 0.8%, the Fbg (3 h) was 234.6 mg/dL and the Hb (3 h) was 13.3 g/dL. For the same compound, the Ht (3 h) was 38.4%, the Lym (3 h) was 81.8% and the MCH (3 h) was 21.5 pg. It also gave an MCHC (3 h) of 34.9%, an MCV (3 h) of 61.6 fL and a Mono (3 h) of 2.4%. For the same compound, the Neu (3 h) was 14.4%, the PT (3 h) was 12.2 s and the Plat (3 h) was 137.2 x10_4/uL. The RBC (3 h) was 623.6 x10_4/ul, the Ret (3 h) was 7.6% and the WBC (3 h) was 86.9 x10_2/uL. For the same compound, the KIDNEY_L (3 h) was 0.9 g, the KIDNEY_R (3 h) was 0.9 g and the KIDNEY_TOTAL (3 h) was 1.8 g. The LIVER (3 h) was 10.8 g, the A/G (3 h) was 1.6 and the ALP (3 h) was 1250.4 IU/L. The ALT (3 h) was 37.6 IU/L, the AST (3 h) was 75.6 IU/L and the BUN (3 h) was 11.6 mg/dL. The CRE (3 h) was 0.4 mg/dL, the Ca (3 h) was 11 mg/dL and the Cl (3 h) was 101.8 meq/L. It also gave a DBIL (3 h) of 0.4 mg/dL, a GLC (3 h) of 193.4 mg/dL and an IP (3 h) of 8.4 mg/dL. The K (3 h) was 3.8 meq/L, the LDH (3 h) was 218.8 IU/L and the Na (3 h) was 139 meq/L. The PL (3 h) was 184 mg/dL, the RALB (3 h) was 3.6 g/dL and the TBIL (3 h) was 0.4 mg/dL. It also gave a TC (3 h) of 79.8 mg/dL, a TG (3 h) of 233.2 mg/dL and a TP (3 h) of 5.8 g/dL. The gamma-GTP (3 h) was 1 IU/L, the TERMINAL_BW (6 h) was 225.4 g and the APTT (6 h) was 18.9 s. For the same compound, the Bas (6 h) was 0%, the Eos (6 h) was 1% and the Fbg (6 h) was 229.6 mg/dL. For the same compound, the Hb (6 h) was 13.7 g/dL, the Ht (6 h) was 39.7% and the Lym (6 h) was 76.8%. For the same compound, the MCH (6 h) was 20.9 pg, the MCHC (6 h) was 34.5% and the MCV (6 h) was 60.7 fL. For the same compound, the Mono (6 h) was 3.4%, the Neu (6 h) was 18.4% and the PT (6 h) was 12.5 s. The Plat (6 h) was 131.5 x10_4/uL, the RBC (6 h) was 654.6 x10_4/ul and the Ret (6 h) was 7.7%. It also gave a WBC (6 h) of 91.8 x10_2/uL, a KIDNEY_L (6 h) of 1 g and a KIDNEY_R (6 h) of 1 g. For the same compound, the KIDNEY_TOTAL (6 h) was 2 g, the LIVER (6 h) was 10 g and the A/G (6 h) was 1.7. For the same compound, the ALP (6 h) was 1002.8 IU/L, the ALT (6 h) was 31.2 IU/L and the AST (6 h) was 67.2 IU/L. For the same compound, the BUN (6 h) was 8.6 mg/dL, the CRE (6 h) was 0.3 mg/dL and the Ca (6 h) was 10.7 mg/dL. For the same compound, the Cl (6 h) was 103.2 meq/L, the DBIL (6 h) was 0.1 mg/dL and the GLC (6 h) was 192.2 mg/dL. For the same compound, the IP (6 h) was 8.8 mg/dL, the K (6 h) was 3.9 meq/L and the LDH (6 h) was 224 IU/L. It also gave a Na (6 h) of 140.4 meq/L, a PL (6 h) of 157.6 mg/dL and an RALB (6 h) of 3.5 g/dL. For the same compound, the TBIL (6 h) was 0.2 mg/dL, the TC (6 h) was 76.2 mg/dL and the TG (6 h) was 86 mg/dL. The TP (6 h) was 5.7 g/dL, the gamma-GTP (6 h) was 1 IU/L and the TERMINAL_BW (9 h) was 221.7 g. It also gave an APTT (9 h) of 18.1 s, a Bas (9 h) of 0% and an Eos (9 h) of 1%. The Fbg (9 h) was 234.4 mg/dL, the Hb (9 h) was 13.4 g/dL and the Ht (9 h) was 38.5%. The Lym (9 h) was 73.2%, the MCH (9 h) was 20.8 pg and the MCHC (9 h) was 34.9%. The MCV (9 h) was 59.7 fL, the Mono (9 h) was 2.6% and the Neu (9 h) was 22.8%. The PT (9 h) was 13 s, the Plat (9 h) was 137.3 x10_4/uL and the RBC (9 h) was 644.4 x10_4/ul. It also gave a Ret (9 h) of 7.1%, a WBC (9 h) of 78.9 x10_2/uL and a KIDNEY_L (9 h) of 0.9 g. The KIDNEY_R (9 h) was 1 g, the KIDNEY_TOTAL (9 h) was 1.9 g and the LIVER (9 h) was 9 g. For the same compound, the A/G (9 h) was 1.6, the ALP (9 h) was 1006.6 IU/L and the ALT (9 h) was 27 IU/L. For the same compound, the AST (9 h) was 63.6 IU/L, the BUN (9 h) was 11.2 mg/dL and the CRE (9 h) was 0.4 mg/dL. For the same compound, the Ca (9 h) was 10.2 mg/dL, the Cl (9 h) was 103 meq/L and the DBIL (9 h) was 0.082 mg/dL. It also gave a GLC (9 h) of 204.6 mg/dL, an IP (9 h) of 10.2 mg/dL and a K (9 h) of 3.7 meq/L. The LDH (9 h) was 223.8 IU/L, the Na (9 h) was 141.2 meq/L and the PL (9 h) was 136.8 mg/dL. The RALB (9 h) was 3.3 g/dL, the TBIL (9 h) was 0.1 mg/dL and the TC (9 h) was 64.2 mg/dL. It also gave a TG (9 h) of 68.2 mg/dL, a TP (9 h) of 5.5 g/dL and a gamma-GTP (9 h) of 0.8 IU/L. The TERMINAL_BW (24 h) was 236.7 g, the APTT (24 h) was 18.6 s and the Bas (24 h) was 0%. For the same compound, the Eos (24 h) was 1%, the Fbg (24 h) was 230.2 mg/dL and the Hb (24 h) was 13.7 g/dL. For the same compound, the Ht (24 h) was 39.5%, the Lym (24 h) was 80.8% and the MCH (24 h) was 20.7 pg. It also gave an MCHC (24 h) of 34.5%, an MCV (24 h) of 60 fL and a Mono (24 h) of 2.4%. For the same compound, the Neu (24 h) was 15.8%, the PT (24 h) was 12.5 s and the Plat (24 h) was 127.3 x10_4/uL. It also gave an RBC (24 h) of 659.8 x10_4/ul, a Ret (24 h) of 6.3% and a WBC (24 h) of 75.3 x10_2/uL. For the same compound, the KIDNEY_L (24 h) was 1 g, the KIDNEY_R (24 h) was 1 g and the KIDNEY_TOTAL (24 h) was 2 g. The LIVER (24 h) was 10.9 g, the A/G (24 h) was 1.5 and the ALP (24 h) was 1006.2 IU/L. The ALT (24 h) was 34 IU/L, the AST (24 h) was 66.4 IU/L and the BUN (24 h) was 14.4 mg/dL. For the same compound, the CRE (24 h) was 0.4 mg/dL, the Ca (24 h) was 10.7 mg/dL and the Cl (24 h) was 102.2 meq/L. It also gave a DBIL (24 h) of 0.094 mg/dL, a GLC (24 h) of 191.2 mg/dL and an IP (24 h) of 7 mg/dL. The K (24 h) was 3.9 meq/L, the LDH (24 h) was 198.2 IU/L and the Na (24 h) was 140 meq/L. It also gave a PL (24 h) of 147.8 mg/dL, an RALB (24 h) of 3.3 g/dL and a TBIL (24 h) of 0.2 mg/dL. For the same compound, the TC (24 h) was 68.4 mg/dL, the TG (24 h) was 125.4 mg/dL and the TP (24 h) was 5.5 g/dL. For the same compound, the gamma-GTP (24 h) was 1 IU/L.
